Experimental findings from BindingDB's records for doi:10.1016/s0960-894x(02)00004-5 (Keio University, 2002) are described below.

In test [1] the target is alpha-L-fucosidase (Bos taurus). Put plainly: The compound was tested for the inhibitory activity against alpha-L-Fucosidase in bovine kidney.
The target is the same in test [2]. The test is described as above. This is another data set of the same source.

pKi: −log10 of the molar value.

The term pKi denotes the negative decadic logarithm of the Ki, by convention in mol/L. For `CC1CC(O)(CN)C(O)C(O)C1O` (stereo not drawn) [1-Aminomethyl-5-methyl-cyclohexane-1,2,3,4-tetraol], the values for the pKi in test [1] and in test [2] were 5.55 and 5.52, respectively.

With `CC1=CC(N)C(O)C(O)C1O` (stereo not drawn) [6-Amino-4-methyl-cyclohex-4-ene-1,2,3-triol], the pKi in test [1] was 4.35.
